US20250353833A1, “DPP9 BINDING COMPOUNDS” (UNIVERSITEIT ANTWERPEN, priority 2022, published 2025)
Counter-ions that a name gives are not always drawn. Like-named read-outs stand apart in the source and are kept apart here.

Key:
DPP8 = DPP8 (Homo sapiens (Human), UniProt Q6V1X1); assay: DPP8 enzyme inhibition, IC50 measurement (Ala-Pro-pNA release); type: biochemical
Description: (§1) IC50 measurements. […] The Magellan software was used to process the data, which was then fitted using a non-linear fit model in GraFit 7. […] As a blank, the assay buffer was used instead of the enzyme. Screening measurements were carried out in duplo and IC50 values were determined in triplo with at least eight different inhibitor concentrations as described by Van Goethem et al.

DPP9 = DPP9 (Homo sapiens (Human), UniProt Q86TI2); assay: DPP9 enzyme inhibition, IC50 measurement (Ala-Pro-pNA release); type: biochemical; conditions: for SI DPP9/DPP8 / SI DPP9/8: selectivity index; for SI DPP9/8: DPP8 IC50 over DPP9 IC50
Description: DPP4 was purified from human seminal plasma as described previously.^[3]
as §1

[1] = Table 3, mean ± SD (n = 3), read-out: DPP9 IC50 ± SD

Sequence of DPP9 (Q86TI2 whole entry): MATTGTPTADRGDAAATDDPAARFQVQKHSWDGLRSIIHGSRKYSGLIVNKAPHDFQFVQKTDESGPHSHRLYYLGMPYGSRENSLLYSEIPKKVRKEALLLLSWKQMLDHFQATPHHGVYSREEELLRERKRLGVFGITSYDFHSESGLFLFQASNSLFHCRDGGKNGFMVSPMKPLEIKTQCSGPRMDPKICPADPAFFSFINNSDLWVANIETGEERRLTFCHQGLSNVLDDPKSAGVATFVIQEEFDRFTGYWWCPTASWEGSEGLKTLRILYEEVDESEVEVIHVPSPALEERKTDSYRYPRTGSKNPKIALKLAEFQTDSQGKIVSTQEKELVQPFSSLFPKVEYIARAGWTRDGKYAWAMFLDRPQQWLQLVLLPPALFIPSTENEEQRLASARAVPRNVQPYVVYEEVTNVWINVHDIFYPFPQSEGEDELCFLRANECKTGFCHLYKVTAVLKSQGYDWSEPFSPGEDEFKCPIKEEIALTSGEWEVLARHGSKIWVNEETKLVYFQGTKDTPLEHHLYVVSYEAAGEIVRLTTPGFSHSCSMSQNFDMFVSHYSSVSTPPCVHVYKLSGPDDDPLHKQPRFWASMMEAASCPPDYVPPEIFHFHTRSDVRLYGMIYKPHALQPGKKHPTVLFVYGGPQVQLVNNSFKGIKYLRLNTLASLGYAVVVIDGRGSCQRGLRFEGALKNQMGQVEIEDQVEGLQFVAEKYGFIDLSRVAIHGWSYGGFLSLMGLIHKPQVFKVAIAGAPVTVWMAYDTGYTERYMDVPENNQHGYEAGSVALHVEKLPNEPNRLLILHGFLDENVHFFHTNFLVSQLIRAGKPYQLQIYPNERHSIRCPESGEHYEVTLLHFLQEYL
Sequence of DPP8 (Q6V1X1 whole entry): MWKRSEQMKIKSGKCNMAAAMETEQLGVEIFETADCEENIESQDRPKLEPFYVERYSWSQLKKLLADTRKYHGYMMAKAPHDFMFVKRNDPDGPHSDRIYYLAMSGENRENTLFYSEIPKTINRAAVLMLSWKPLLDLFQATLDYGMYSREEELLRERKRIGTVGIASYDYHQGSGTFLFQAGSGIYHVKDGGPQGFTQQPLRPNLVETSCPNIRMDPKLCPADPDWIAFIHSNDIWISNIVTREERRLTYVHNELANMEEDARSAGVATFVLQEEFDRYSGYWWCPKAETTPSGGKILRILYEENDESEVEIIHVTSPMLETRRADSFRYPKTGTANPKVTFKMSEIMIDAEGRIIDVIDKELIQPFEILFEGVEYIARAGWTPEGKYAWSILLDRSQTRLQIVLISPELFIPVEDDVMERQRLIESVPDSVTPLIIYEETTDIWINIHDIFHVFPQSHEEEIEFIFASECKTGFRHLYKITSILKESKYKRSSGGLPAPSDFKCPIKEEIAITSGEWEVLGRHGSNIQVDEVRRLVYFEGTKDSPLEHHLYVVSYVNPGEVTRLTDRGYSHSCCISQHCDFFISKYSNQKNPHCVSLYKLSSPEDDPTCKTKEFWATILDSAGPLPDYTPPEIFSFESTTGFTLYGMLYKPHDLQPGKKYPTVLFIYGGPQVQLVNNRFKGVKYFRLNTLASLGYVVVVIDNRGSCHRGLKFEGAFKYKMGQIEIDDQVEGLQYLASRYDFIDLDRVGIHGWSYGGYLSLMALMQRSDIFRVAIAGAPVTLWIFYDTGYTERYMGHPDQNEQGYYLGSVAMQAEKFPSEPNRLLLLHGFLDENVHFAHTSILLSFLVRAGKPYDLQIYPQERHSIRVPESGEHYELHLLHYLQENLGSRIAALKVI

SMILES | SI DPP9/DPP8 (DPP9; Table 4) | further results
Cl.O=C(NC12CC3CC(CC(NCC(=O)N4Cc5ccc(F)cc5C4)(C3)C1)C2)c1cccnc1 [Compound 98, N-((1s,3r,5R,7S)-3-((2-(5-fluoroisoindolin-2-yl)-2-oxoethyl)amino)adamantan-1-yl)nicotinamide hydrochloride] | 3 | IC50 (DPP8; Table 4, standard method, read-out: IC50 DPP8): 0.27 ± 0.033 µM; IC50 (DPP9; Table 4, standard method, read-out: IC50 DPP9): 0.088 ± 0.023 µM
N#Cc1ccc(CCC(=O)NC23CC4CC(CC(NCC(=O)N5Cc6ccccc6C5)(C4)C2)C3)cc1 [Compound 44, 3-(4-cyanophenyl)-N-(3-((2-(isoindolin-2-yl)-2-oxoethyl)amino)adamantan-1-yl)propanamide] | – | IC50 (DPP8; Table 3, mean ± SD (n = 3), read-out: DPP8 IC50 ± SD): 0.638 ± 0.0464 µM; IC50 (DPP9; [1]): 0.032 µM; SI DPP9/8 (DPP9; Table 3): 19.9
Cc1ncsc1-c1ccc(CNC(=O)[C@@H]2C[C@@H](O)CN2C(=O)[C@@H](NC(=O)c2ccc(-c3ccc(C(=O)NC45CC6CC(CC(NCC(=O)N7Cc8ccc(F)cc8C7)(C6)C4)C5)cc3)cc2)C(C)(C)C)cc1 [Compound 123, N4-(3-((2-(5-fluoroisoindolin-2-yl)-2-oxoethyl)amino)adamantan-1-yl)-N4′-((S)-1-((2S,4R)-4-hydroxy-2-((4-(4-methylthiazol-5-yl)benzyl)carbamoyl)pyrrolidin-1-yl)-3,3-dimethyl-1-oxobutan-2-yl)-[1,1′-biphenyl]-4,4′-dicarboxamide] | 3 | –
O=C(CNC12CC3CC(C1)CC(Nc1ccc(-c4ccccc4)nc1)(C3)C2)N1Cc2ccc(F)cc2C1 [Compound 109, 1-(5-fluoroisoindolin-2-yl)-2-((-3-((6-phenylpyridin-3-yl)amino)adamantan-1-yl)amino)ethan-1-one dihydrochloride] | 2 | –
O=C(CCCCC1SCC2NC(=O)NC21)NCCOCCOCCOCCNC(=O)NC12CC3CC(CC(NCC(=O)N4Cc5cc(F)c(F)cc5C4)(C3)C1)C2 (stereo not drawn) [Compound 115, N-(1-((3-((2-(5,6-difluoroisoindolin-2-yl)-2-oxoethyl)amino)adamantan-1-yl)amino)-1-oxo-5,8,11-trioxa-2-azatridecan-13-yl)-5-(2-oxohexahydro-1H thieno[3,4-d]imidazol-4-yl)pentanamide] | 7 | –
Cl.N#Cc1ccc(C(=O)NC23CC4CC(CC(NCC(=O)N5Cc6ccc(F)cc6C5)(C4)C2)C3)cc1 [Compound 96, 4-cyano-N-((1s,3r,5R,7S)-3-((2-(5-fluoroisoindolin-2-yl)-2-oxoethyl)amino)adamantan-1-yl)benzamide hydrochloride] | 12 | –
Cl.O=C(NC12CC3CC(CC(NCC(=O)N4Cc5ccc(F)cc5C4)(C3)C1)C2)c1cnc2ccccc2c1 [Compound 99, N-((1s,3r,5R,7S)-3-((2-(5-fluoroisoindolin-2-yl)-2-oxoethyl)amino)adamantan-1-yl)quinoline-3-carboxamide hydrochloride] | 13 | –
CC[N+]1=C(/C=C/C=C2/N(CCCCCC(=O)NC34CC5CC(CC(NCC(=O)N6Cc7ccc(F)cc7C6)(C5)C3)C4)c3ccc(S(=O)(=O)O)cc3C2(C)C)C(C)(C)c2cc(S(=O)(=O)[O-])ccc21 [Compound 120, 1-ethyl-2-((E)-3-((E)-1-(6-((-3-((2-(5-fluoroisoindolin-2-yl)-2-oxoethyl)amino)adamantan-1-yl)amino)-6-oxohexyl)-3,3-dimethyl-5-sulfoindolin-2-ylidene)prop-1-en-1-yl)-3,3-dimethyl-3H-indol-1-ium-5-sulfonate] | 21 | –
CCCCNC12CC3CC(C1)CC(NCC(=O)N1Cc4ccccc4C1)(C3)C2 [Compound 25, 2-((3-(butylamino)adamantan-1-yl)amino)-1-(isoindolin-2-yl)ethan-1-one 2,2,2-trifluoroacetate] | – | IC50 (DPP9; [1]): 0.477 ± 0.028 µM; SI DPP9/8 (DPP9; Table 3): >21
Cl.O=C(NC12CC3CC(CC(NCC(=O)N4Cc5ccc(F)cc5C4)(C3)C1)C2)c1cccc(-c2ccccc2)c1 [Compound 101, N-((1s,3r,5R,7S)-3-((2-(5-fluoroisoindolin-2-yl)-2-oxoethyl)amino)adamantan-1-yl)-[1,1′-biphenyl]-3-carboxamide hydrochloride] | 4 | –
Cl.O=C(NC12CC3CC(CC(NCC(=O)N4Cc5ccc(F)cc5C4)(C3)C1)C2)c1ccc(-c2ccc(O)cc2)cc1 [Compound 105, N-(-3-((2-(5-fluoroisoindolin-2-yl)-2-oxoethyl)amino)adamantan-1-yl)-4′-hydroxy-[1,1′-biphenyl]-4-carboxamide hydrochloride] | 27 | –
Cl.O=C(CNC12CC3CC(C1)CC(NS(=O)(=O)c1ccc(-c4ccccc4)cc1)(C3)C2)N1Cc2ccc(F)cc2C1 [Compound 102, N-((1s,3r,5R,7S)-3-((2-(5-fluoroisoindolin-2-yl)-2-oxoethyl)amino)adamantan-1-yl)-[1,1′-biphenyl]-4-sulfonamide hydrochloride] | 4 | –
Cc1ncsc1-c1ccc(CNC(=O)[C@@H]2C[C@@H](O)CN2C(=O)[C@@H](NC(=O)CCOCCOc2ccc(-c3ccc(C(=O)NC45CC6CC(CC(NCC(=O)N7Cc8ccc(F)cc8C7)(C6)C4)C5)cc3)cc2)C(C)(C)C)cc1 [Compound 125, (2S,4R)-1-((2S)-2-(3-(2-((4′-((3-((2-(5-fluoroisoindolin-2-yl)-2-oxoethyl)amino)adamantan-1-yl)carbamoyl)-[1,1′-biphenyl]-4-yl)oxy)ethoxy)propanamido)-3,3-dimethylbutanoyl)-4-hydroxy-N-(4-(4-methylthiazol-5-yl)benzyl)pyrrolidine-2-carboxamide] | 9 | –
COC(=O)c1csc(-c2ccc(C(=O)NC34CC5CC(CC(NCC(=O)N6Cc7ccc(F)cc7C6)(C5)C3)C4)cc2)c1.Cl [Compound 103, Methyl 5-(4-((-3-((2-(5-fluoroisoindolin-2-yl)-2-oxoethyl)amino)adamantan-1-yl)carbamoyl)phenyl)thiophene-3-carboxylate hydrochloride] | 25 | –
Cl.O=C(NC12CC3CC(CC(NCC(=O)N4Cc5ccc(F)cc5C4)(C3)C1)C2)c1ccc(-c2ccccc2)s1 [Compound 97, N-((1s,3r,5R,7S)-3-((2-(5-fluoroisoindolin-2-yl)-2-oxoethyl)amino)adamantan-1-yl)-5-phenylthiophene-2-carboxamide hydrochloride] | 11 | –
Cl.O=C(NC12CC3CC(CC(NCC(=O)N4Cc5ccc(F)cc5C4)(C3)C1)C2)c1ccc(-c2cccs2)cc1 [Compound 92, N-((1s,3r,5R,7S)-3-((2-(5-fluoroisoindolin-2-yl)-2-oxoethyl)amino)adamantan-1-yl)-4-(thiophen-2-yl)benzamide hydrochloride] | 27 | –
Cc1ncsc1-c1ccc(CNC(=O)[C@@H]2C[C@@H](O)CN2C(=O)[C@@H](NC(=O)c2csc(-c3ccc(C(=O)NC45CC6CC(CC(NCC(=O)N7Cc8ccc(F)cc8C7)(C6)C4)C5)cc3)c2)C(C)(C)C)cc1 [Compound 122, (2S,4R)-1-((2S)-2-(5-(4-((3-((2-(5-fluoroisoindolin-2-yl)-2-oxoethyl)amino)adamantan-1-yl)carbamoyl)phenyl)thiophene-3-carboxamido)-3,3-dimethylbutanoyl)-4-hydroxy-N-(4-(4-methylthiazol-5-yl)benzyl)pyrrolidine-2-carboxamide] | 11 | –
Cl.O=C(NC12CC3CC(CC(NCC(=O)N4Cc5ccc(F)cc5C4)(C3)C1)C2)c1ccc(-c2ccc(F)cc2)cc1 [Compound 93, 4′-fluoro-N-((1s,3r,5R,7S)-3-((2-(5-fluoroisoindolin-2-yl)-2-oxoethyl)amino)adamantan-1-yl)-[1,1′-biphenyl]-4-carboxamide hydrochloride] | 59 | –
N#C[C@@H]1[C@@H]2C[C@@H]2CN1C(=O)CNC12CC3CC(CC(O)(C3)C1)C2 [Compound 5l, (1R,2S,5S)-3-((3-hydroxyadamantan-1-yl)glycyl)-3-azabicyclo[3.1.0]hexane-2-carbonitrile] | – | DPP9/8 selectivity index (DPP9): > 10
Cl.O=C(NC12CC3CC(CC(NCC(=O)N4Cc5ccc(F)cc5C4)(C3)C1)C2)c1ccc(-c2ccccc2F)cc1 [Compound 94, 2′-fluoro-N-((1s,3r,5R,7S)-3-((2-(5-fluoroisoindolin-2-yl)-2-oxoethyl)amino)adamantan-1-yl)-[1,1′-biphenyl]-4-carboxamide hydrochloride] | 26 | –
COC(=O)c1ccc(-c2ccc(C(=O)NC34CC5CC(CC(NCC(=O)N6Cc7ccc(F)cc7C6)(C5)C3)C4)cc2)cc1 [Compound 104, Methyl 4′-((-3-((2-(5-fluoroisoindolin-2-yl)-2-oxoethyl)amino)adamantan-1-yl)carbamoyl)-[1,1′-biphenyl]-4-carboxylate hydrochloride] | 46 | IC50 (DPP9; read-out: IC50 DPP9): 0.001 µM
Cl.O=C(NC12CC3CC(CC(NCC(=O)N4Cc5ccc(F)cc5C4)(C3)C1)C2)c1ccc(-c2ccccc2)nc1 [Compound 89, N-((1s,3r,5R,7S)-3-((2-(5-fluoroisoindolin-2-yl)-2-oxoethyl)amino)adamantan-1-yl)-6-phenylnicotinamide hydrochloride] | 28 | –
Cl.O=C(NC12CC3CC(CC(NCC(=O)N4Cc5ccc(F)cc5C4)(C3)C1)C2)c1ccc(-c2ccccc2)cc1 [Compound 87, N-((1s,3r,5R,7S)-3-((2-(5-fluoroisoindolin-2-yl)-2-oxoethyl)amino)adamantan-1-yl)-[1,1′-biphenyl]-4-carboxamide hydrochloride] | 54 | –
Cl.O=C(NC12CC3CC(CC(NCC(=O)N4Cc5ccc(F)cc5C4)(C3)C1)C2)c1ccc(-c2cccs2)nc1 [Compound 100, N-((1s,3r,5R,7S)-3-((2-(5-fluoroisoindolin-2-yl)-2-oxoethyl)amino)adamantan-1-yl)-6-(thiophen-2-yl)nicotinamide hydrochloride] | 22 | –
